Tests used:
[1] = tested on: common mouse chondrocyte and adipocyte precursor cell line (CL-1); test: Differentiation of CL-1 into chondrocytes, alcian blue/oil red O double staining; type: cell-based; details: 10 μmol/L, 7 days after confluency, vs vehicle control
Experimental: […] (WO98/39414) were cultured in a 4-well chamber slide (Nunc Corp.) to a cell density of 5000/cm^2. The medium used was A-MEM (GIBCO Corp.) containing 100 U/mL of penicillin (Meiji Seika Co., Ltd.), 100 μg/mL of streptomycin (Banyu Pharmaceutical Corp.) and 10% fetal bovine serum (INTERGEN Corp.). When the CL-1 cells reached confluency, compound A was added to a final concentration of 10 μmol/L, with further addition when the medium was exchanged 3 times a week during culturing for 7 days.
A slide was also prepared with ethanol (Junsei Chemical Corp.) to a final concentration of 1% in the medium as a vehicle control. On the 7th day after confluency, the plates were collected, the CL-1 cell layer was double-stained with alcian blue and oil red O, and differentiation to chondrocytes or adipocytes was observed. After culturing was completed, the cell layer was fixed for one hour at room temperature with a 4% paraformaldehyde solution (Wako Pure Chemical Industries) and then washed with 0.1N hydrochloric acid and stained overnight with an aqueous solution (pH 1.0) of 1% alcian blue (EM Science Corp.). […]

[2] = tested on: healthy rats (auricula, trachea, sternum, femoral/crural knee joint, lumbar spine disk cartilage); test: Chondrogenesis promoting effect with oral administration to healthy rats; type: in vivo, rat; details: oral 2 g/kg/day for 4 weeks, 6-week-old male SD rats, vs 3% gum Arabic vehicle; histology
From the text: “Compound A” obtained in Synthesis Example 1 above was suspended in a 3% gum Arabic solution and orally administered to 6-week-old male SD rats (Nihon SLC Corp./Nihon Charles River Corp.) at a dosage of 2 g/kg/day for 4 weeks.
Each rat was then autopsied, the auricula, trachea, sternum, femoral/crural knee joint and lumbar spine (disk) were immersed for one week in 20% neutral buffer formalin (Wako Pure Chemical Industries, Co., Ltd.) and fixed, the sternum, femoral/crural knee joint and lumbar spine (disk) were then demineralized for 2 weeks with a 20% EDTA-4Na solution (pH 7.4, Wako Pure Chemical Industries), and observation sites were trimmed with a razor (Feather Co., Ltd.). Observation sites were trimmed from the auricula and trachea with a razor without demineralization.
Each of the trimmed tissue samples was prepared into a paraffin embedded block using an automatic embedding apparatus (Sakura Corp.) and paraffin (equivalent mixture of products by Kokusan Kagaku Corp. and Fisher Scientific Corp.). Here, a paraffin automatic dispensing embedding center (Miles Scientific Corp.) was used to fix each paraffin block in a tissue sample cassette (TISSUE-TEK Corp.)
The paraffin block was cut into 2 μm-thick sections using a microtome (Daiwa Optical Instruments Corp.) and microtome knife (Feather Co., Ltd.), and then attached onto slide glass (Matsunami Glass Corp.) and dried. […]

[3] = tested on: common mouse chondrocyte and adipocyte precursor cell line (CL-1); test: Uptake of 35S-labeled sulfuric acid into CL-1; type: cell-based; details: 10 μmol/L (A and F also 1 or 5 μmol/L), 48 h culture
[4] = tested on: rat primary culture articular chondrocytes; test: Uptake of 35S-labeled sulfuric acid into glycosaminoglycan (cartilage matrix synthesis); type: cell-based; details: 10 μmol/L of compound, vs ethanol 1% final concentration control solvent
From the text: Articular chondrocytes were trimmed from the femoral knee joint of 6-week-old male SD rats (Nihon SLC Corp.) using a scalpel, and then digested in 0.3% collagenase (WORTHINGTON Corp.) and cultivated (Calcif. Tissue Int. 19:179-187,1975).
The isolated articular chondrocytes were used to measure glycosaminoglycan synthesis in the cartilage matrix by measurement of the uptake of ^35S-labeled sulfuric acid (Amersham Co., Ltd.) into glycosaminoglycan. Specifically, the articular chondrocytes were cultured in a 96-well cell culturing plate (FALCON Corp.) to a cell density of 10,000 per well. […]
When the chondrocytes reached confluency, the medium was exchanged with one having a serum concentration of 0.3% and culturing was carried out overnight, after which the medium was exchanged with the same type also containing 10 μmol/L of compound A, and then after 3 hours, ^35S-labeled sulfuric acid (Amersham Co., Ltd.) was added at 0.5 μCi per well and culturing was carried out for 24 hours. […] The sample was then filtered with glass fiber filter paper (Toyo Filter Paper Corp.), the filter paper was washed 3 times with 2 mL of 1% cetylpyridinium chloride (20 mmol/L), one each was placed in a liquid scintillation counting vial (PACKARD Corp.), 10 mL of scintillator (Nacalai Tesque Corp.) was poured in, and the radioactivity was measured with a liquid scintillation counter (PACKARD Corp.).

In the case of `CCOC(CN1C(=O)[C@](CC(=O)Nc2ccc(C)cc2)(NC(=O)Nc2ccc(C)cc2)c2ccccc21)OCC` [Compound A, (+)-1-(2,2-diethoxyethyl)-3-((4-methylphenyl)aminocarbonylmethyl)-3-(N′-(4-methylphenyl)ureido)indolin-2-one], the “differentiation of CL-1 to adipocytes (oil red O)” value [1] is reported as “suppressed”, the “differentiation of CL-1 to chondrocytes (alcian blue)” value [1] is reported as “clearly promoted” and the “hyaline cartilage formation (auricula, trachea, sternum, knee joint, lumbar spine disk)” value [2] is reported as “accelerated hyaline cartilage formation in all of the organs”. The “differentiation of CL-1 to adipocytes” value [3] was “clearly suppress” and the “uptake of 35S-labeled sulfuric acid” value [4] was “significantly increased”.

— patent US6716628B2, “Chondrogenesis promoters and indolin-2-one derivatives” (Chugai Seiyaku Kabushiki Kaisha, priority 1999, dated 2004)
